The test system of the assay is ASLV-A vector RCASBP(A)-AP. It is filed as cell-based, avian sarcoma and leukosis virus (ASLV-A).

Turning to `[O-][Cl+2]([O-])O` [chlorate], the “influence on infection by ASLV-A vector” value is recorded as “did not influence infection”.
